Test results taken from the NIST ThermoML archive (doi:10.1021/acs.jced.7b00694).
± gives the expanded uncertainty stated by the source.

Experiment: xn = mol fraction of the nth substance listed
Settings: Gas, Buoyancy - hydrostatic balance with magnetic suspension - one sinker

[HH] [hydrogen] + N#N
Settings | mass density [kg/m3]
240.05 K, 998 kPa, x2 = 0.95 | 13.46 ± 0.073
240.05 K, 1997 kPa, x2 = 0.95 | 27.15 ± 0.074
240.05 K, 2999 kPa, x2 = 0.95 | 41.055 ± 0.075
240.05 K, 3998 kPa, x2 = 0.95 | 55.055 ± 0.077
240.05 K, 4998 kPa, x2 = 0.95 | 69.19 ± 0.078
240.05 K, 5999 kPa, x2 = 0.95 | 83.412 ± 0.079
240.05 K, 7000 kPa, x2 = 0.95 | 97.671 ± 0.08
240.05 K, 8000 kPa, x2 = 0.95 | 111.894 ± 0.081
240.05 K, 9001 kPa, x2 = 0.95 | 126.079 ± 0.082
240.05 K, 10004 kPa, x2 = 0.95 | 140.187 ± 0.082
240.05 K, 11004 kPa, x2 = 0.95 | 154.093 ± 0.083
240.05 K, 12006 kPa, x2 = 0.95 | 167.817 ± 0.082
240.05 K, 13008 kPa, x2 = 0.95 | 181.315 ± 0.083
240.05 K, 14010 kPa, x2 = 0.95 | 194.555 ± 0.083
240.05 K, 15014 kPa, x2 = 0.95 | 207.511 ± 0.083
240.05 K, 16011 kPa, x2 = 0.95 | 220.048 ± 0.083
240.05 K, 17007 kPa, x2 = 0.95 | 232.236 ± 0.083
240.05 K, 18019 kPa, x2 = 0.95 | 244.268 ± 0.083
240.05 K, 19018 kPa, x2 = 0.95 | 255.783 ± 0.083
240.05 K, 19977 kPa, x2 = 0.95 | 266.493 ± 0.084
240.07 K, 998 kPa, x2 = 0.9 | 12.789 ± 0.07
240.07 K, 999 kPa, x2 = 0.5001 | 7.515 ± 0.045
240.07 K, 1998 kPa, x2 = 0.9 | 25.761 ± 0.07
240.07 K, 2000 kPa, x2 = 0.5001 | 14.997 ± 0.045
240.07 K, 3000 kPa, x2 = 0.9 | 38.902 ± 0.072
240.07 K, 3998 kPa, x2 = 0.9 | 52.1 ± 0.073
240.07 K, 3999 kPa, x2 = 0.5001 | 29.835 ± 0.046
240.07 K, 4998 kPa, x2 = 0.5001 | 37.187 ± 0.046
240.07 K, 4998 kPa, x2 = 0.9 | 65.397 ± 0.074
240.07 K, 5999 kPa, x2 = 0.5001 | 44.484 ± 0.046
240.07 K, 5999 kPa, x2 = 0.9 | 78.743 ± 0.075
240.07 K, 6999 kPa, x2 = 0.5001 | 51.715 ± 0.047
240.07 K, 6999 kPa, x2 = 0.9 | 92.089 ± 0.076
240.07 K, 8000 kPa, x2 = 0.9 | 105.416 ± 0.076
240.07 K, 9001 kPa, x2 = 0.9 | 118.665 ± 0.077
240.07 K, 10003 kPa, x2 = 0.9 | 131.826 ± 0.077
240.07 K, 11003 kPa, x2 = 0.9 | 144.806 ± 0.078
240.07 K, 12006 kPa, x2 = 0.9 | 157.633 ± 0.078
240.07 K, 13007 kPa, x2 = 0.9 | 170.235 ± 0.079
240.07 K, 14004 kPa, x2 = 0.9 | 182.528 ± 0.078
240.07 K, 15010 kPa, x2 = 0.9 | 194.68 ± 0.078
240.07 K, 16012 kPa, x2 = 0.9 | 206.497 ± 0.079
240.07 K, 17016 kPa, x2 = 0.9 | 218.039 ± 0.079
240.07 K, 18009 kPa, x2 = 0.9 | 229.14 ± 0.079
240.07 K, 19021 kPa, x2 = 0.9 | 240.134 ± 0.079
240.07 K, 19857 kPa, x2 = 0.9 | 248.956 ± 0.08
240.08 K, 2989 kPa, x2 = 0.5001 | 22.354 ± 0.046
240.08 K, 7999 kPa, x2 = 0.5001 | 58.867 ± 0.047
240.08 K, 8999 kPa, x2 = 0.5001 | 65.94 ± 0.048
240.08 K, 10002 kPa, x2 = 0.5001 | 72.937 ± 0.048
240.08 K, 11003 kPa, x2 = 0.5001 | 79.831 ± 0.048
240.08 K, 17004 kPa, x2 = 0.5001 | 118.935 ± 0.051
240.08 K, 18010 kPa, x2 = 0.5001 | 125.09 ± 0.051
240.08 K, 19066 kPa, x2 = 0.5001 | 131.423 ± 0.051
240.09 K, 12008 kPa, x2 = 0.5001 | 86.648 ± 0.049
240.09 K, 13002 kPa, x2 = 0.5001 | 93.298 ± 0.049
240.09 K, 14003 kPa, x2 = 0.5001 | 99.881 ± 0.05
240.09 K, 15003 kPa, x2 = 0.5001 | 106.346 ± 0.05
240.09 K, 16007 kPa, x2 = 0.5001 | 112.717 ± 0.05
250.02 K, 998 kPa, x2 = 0.95 | 12.909 ± 0.07
250.02 K, 1998 kPa, x2 = 0.95 | 25.981 ± 0.071
250.02 K, 2999 kPa, x2 = 0.95 | 39.211 ± 0.072
250.02 K, 3999 kPa, x2 = 0.95 | 52.525 ± 0.073
250.02 K, 4999 kPa, x2 = 0.95 | 65.908 ± 0.074
250.02 K, 5999 kPa, x2 = 0.95 | 79.318 ± 0.075
250.02 K, 6999 kPa, x2 = 0.95 | 92.739 ± 0.076
250.02 K, 8001 kPa, x2 = 0.95 | 106.147 ± 0.077
250.02 K, 9002 kPa, x2 = 0.95 | 119.485 ± 0.077
250.02 K, 9998 kPa, x2 = 0.95 | 132.641 ± 0.078
250.02 K, 11003 kPa, x2 = 0.95 | 145.769 ± 0.078
250.02 K, 12002 kPa, x2 = 0.95 | 158.648 ± 0.078
250.02 K, 13002 kPa, x2 = 0.95 | 171.33 ± 0.079
250.02 K, 14006 kPa, x2 = 0.95 | 183.836 ± 0.079
250.02 K, 15009 kPa, x2 = 0.95 | 196.059 ± 0.079
250.02 K, 16008 kPa, x2 = 0.95 | 207.967 ± 0.079
250.02 K, 17012 kPa, x2 = 0.95 | 219.644 ± 0.079
250.02 K, 18015 kPa, x2 = 0.95 | 231.002 ± 0.08
250.02 K, 19020 kPa, x2 = 0.95 | 242.075 ± 0.08
250.02 K, 19863 kPa, x2 = 0.95 | 251.12 ± 0.083
250.03 K, 999 kPa, x2 = 0.5001 | 7.213 ± 0.043
250.03 K, 1999 kPa, x2 = 0.5001 | 14.386 ± 0.044
250.03 K, 2988 kPa, x2 = 0.5001 | 21.436 ± 0.044
250.03 K, 3998 kPa, x2 = 0.5001 | 28.596 ± 0.044
250.03 K, 4998 kPa, x2 = 0.5001 | 35.626 ± 0.045
250.04 K, 998 kPa, x2 = 0.9 | 12.26 ± 0.067
250.04 K, 1998 kPa, x2 = 0.9 | 24.659 ± 0.068
250.04 K, 2987 kPa, x2 = 0.9 | 37.024 ± 0.069
250.04 K, 3998 kPa, x2 = 0.9 | 49.722 ± 0.07
250.04 K, 4998 kPa, x2 = 0.9 | 62.325 ± 0.07
250.04 K, 5999 kPa, x2 = 0.5001 | 42.6 ± 0.045
250.04 K, 5999 kPa, x2 = 0.9 | 74.953 ± 0.071
250.04 K, 6999 kPa, x2 = 0.5001 | 49.504 ± 0.046
250.04 K, 6999 kPa, x2 = 0.9 | 87.557 ± 0.072
250.04 K, 7999 kPa, x2 = 0.5001 | 56.336 ± 0.046
250.04 K, 8000 kPa, x2 = 0.9 | 100.114 ± 0.073
250.04 K, 8999 kPa, x2 = 0.5001 | 63.085 ± 0.046
250.04 K, 9001 kPa, x2 = 0.9 | 112.6 ± 0.073
250.04 K, 9995 kPa, x2 = 0.9 | 124.895 ± 0.074
250.04 K, 9999 kPa, x2 = 0.5001 | 69.753 ± 0.046
